In test [1] the target is T1, Amine oxidase [flavin-containing] A (Homo sapiens, UniProt P21397).
T1 sequence (P21397 whole entry): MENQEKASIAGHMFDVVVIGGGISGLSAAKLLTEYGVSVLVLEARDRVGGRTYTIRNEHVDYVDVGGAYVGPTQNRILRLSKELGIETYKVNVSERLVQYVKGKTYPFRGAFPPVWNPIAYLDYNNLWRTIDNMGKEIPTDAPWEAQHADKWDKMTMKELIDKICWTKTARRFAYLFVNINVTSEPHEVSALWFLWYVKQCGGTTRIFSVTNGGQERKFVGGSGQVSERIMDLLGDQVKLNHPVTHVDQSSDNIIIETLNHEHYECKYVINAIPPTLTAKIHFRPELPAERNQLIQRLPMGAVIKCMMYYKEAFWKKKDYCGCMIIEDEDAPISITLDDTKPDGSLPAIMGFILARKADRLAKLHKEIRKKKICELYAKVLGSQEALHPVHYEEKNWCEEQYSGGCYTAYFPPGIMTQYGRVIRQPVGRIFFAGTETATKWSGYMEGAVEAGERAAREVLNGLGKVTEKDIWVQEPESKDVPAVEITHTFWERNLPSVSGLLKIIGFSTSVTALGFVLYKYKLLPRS
The experiment in a line: Inhibition of MAO-A (unknown origin).

Test [2] concerns the target Histone deacetylase 5 (Homo sapiens, UniProt Q9UQL6).
Description: Inhibition of HDAC5 in human HeLa nuclear extracts by fluorometric assay
Test [3] concerns the target T1, Amine oxidase [flavin-containing] A.
Description: Inhibition of human MAO-A using (4S)-4,5-dihydro-2-(6-hydroxybenzothiazolyl)-4-thiazolecarboxylic acid as substrate after 60 mins by MAO-Glo assay
Test [4] concerns the target T2, Amine oxidase [flavin-containing] B (Homo sapiens, UniProt P27338).
T2 sequence (P27338 whole entry): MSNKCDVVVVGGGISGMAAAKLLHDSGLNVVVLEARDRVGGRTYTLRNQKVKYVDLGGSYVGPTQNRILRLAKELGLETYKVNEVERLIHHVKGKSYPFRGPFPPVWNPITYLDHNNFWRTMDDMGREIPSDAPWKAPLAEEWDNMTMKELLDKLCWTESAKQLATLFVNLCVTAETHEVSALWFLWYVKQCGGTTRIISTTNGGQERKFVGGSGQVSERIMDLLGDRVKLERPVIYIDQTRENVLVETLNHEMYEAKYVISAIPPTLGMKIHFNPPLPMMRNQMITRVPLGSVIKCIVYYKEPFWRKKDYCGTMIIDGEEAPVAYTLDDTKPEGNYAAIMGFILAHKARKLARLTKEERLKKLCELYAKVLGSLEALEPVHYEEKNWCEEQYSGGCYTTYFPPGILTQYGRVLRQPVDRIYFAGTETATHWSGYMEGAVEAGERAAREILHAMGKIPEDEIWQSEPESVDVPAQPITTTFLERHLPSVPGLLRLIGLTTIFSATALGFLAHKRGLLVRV
Description: Inhibition of human MAO-B using (4S)-4,5-dihydro-2-(6-hydroxybenzothiazolyl)-4-thiazolecarboxylic acid as substrate after 60 mins by MAO-Glo assay

Test [5] has as its target Phosphatidylinositol 4,5-bisphosphate 3-kinase catalytic subunit beta isoform (Homo sapiens, UniProt P42338). The test can be described thus: Inhibition of recombinant human PI3Kbeta by TR-FRET analysis.
Test [6] addresses Phosphatidylinositol 4,5-bisphosphate 3-kinase catalytic subunit gamma isoform (Homo sapiens, UniProt P48736). The test can be described thus: Inhibition of recombinant human PI3Kgamma by TR-FRET analysis.
Test [7] deals with T3, Phosphatidylinositol 4,5-bisphosphate 3-kinase catalytic subunit delta isoform (Homo sapiens, UniProt O00329).
T3 sequence (O00329 whole entry): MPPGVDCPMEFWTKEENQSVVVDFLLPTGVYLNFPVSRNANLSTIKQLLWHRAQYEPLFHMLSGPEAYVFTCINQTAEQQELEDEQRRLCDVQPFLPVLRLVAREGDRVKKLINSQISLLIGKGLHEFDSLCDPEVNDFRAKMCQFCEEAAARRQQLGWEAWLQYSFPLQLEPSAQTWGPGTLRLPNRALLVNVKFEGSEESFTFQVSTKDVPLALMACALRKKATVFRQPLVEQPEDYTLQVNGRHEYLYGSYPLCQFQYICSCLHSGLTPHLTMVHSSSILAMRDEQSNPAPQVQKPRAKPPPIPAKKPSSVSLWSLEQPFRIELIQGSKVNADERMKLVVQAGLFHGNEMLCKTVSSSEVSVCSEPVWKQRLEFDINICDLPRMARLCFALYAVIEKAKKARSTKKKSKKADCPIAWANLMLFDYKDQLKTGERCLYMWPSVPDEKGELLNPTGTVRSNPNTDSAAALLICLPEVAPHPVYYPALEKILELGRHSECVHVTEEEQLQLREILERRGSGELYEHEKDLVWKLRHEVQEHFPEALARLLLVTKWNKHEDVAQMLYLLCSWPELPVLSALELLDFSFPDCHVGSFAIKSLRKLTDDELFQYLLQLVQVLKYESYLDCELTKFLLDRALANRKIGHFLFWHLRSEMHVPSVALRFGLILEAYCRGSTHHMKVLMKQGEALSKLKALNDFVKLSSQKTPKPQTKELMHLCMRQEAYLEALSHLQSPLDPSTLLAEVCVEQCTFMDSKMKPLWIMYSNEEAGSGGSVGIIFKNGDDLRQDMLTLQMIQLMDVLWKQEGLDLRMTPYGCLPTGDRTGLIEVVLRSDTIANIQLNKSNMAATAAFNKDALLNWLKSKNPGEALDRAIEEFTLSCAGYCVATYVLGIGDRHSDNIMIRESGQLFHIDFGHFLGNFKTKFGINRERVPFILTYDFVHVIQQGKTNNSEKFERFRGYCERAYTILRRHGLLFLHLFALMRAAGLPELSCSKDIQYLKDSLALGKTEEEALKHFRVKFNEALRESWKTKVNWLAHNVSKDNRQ
The test can be described thus: Inhibition of recombinant human PI3Kdelta by TR-FRET analysis. Background: Time-resolved FRET reads energy transfer from a long-lived donor to a nearby acceptor.

For test [8], the target named is Serine/threonine-protein kinase mTOR (Homo sapiens, UniProt P42345). The experiment in a line: Inhibition of recombinant human mTOR by TR-FRET analysis.
In test [9] the target is T4, Histone deacetylase 8 (Homo sapiens, UniProt Q9BY41).
T4 sequence (Q9BY41 whole entry): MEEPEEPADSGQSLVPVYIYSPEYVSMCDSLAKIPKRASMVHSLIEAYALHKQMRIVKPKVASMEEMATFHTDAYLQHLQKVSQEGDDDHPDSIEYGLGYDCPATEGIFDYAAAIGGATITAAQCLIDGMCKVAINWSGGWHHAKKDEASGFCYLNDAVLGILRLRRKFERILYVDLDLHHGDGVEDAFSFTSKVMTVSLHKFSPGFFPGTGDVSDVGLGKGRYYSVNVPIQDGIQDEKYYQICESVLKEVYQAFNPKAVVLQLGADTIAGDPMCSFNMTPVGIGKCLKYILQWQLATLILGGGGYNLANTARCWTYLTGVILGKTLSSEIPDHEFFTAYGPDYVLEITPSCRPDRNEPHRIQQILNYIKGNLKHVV
The experiment in a line: Inhibition of HDAC8 in human HeLa nuclear extracts by fluorometric assay.

Test [10] deals with Histone deacetylase 4 (Homo sapiens, UniProt P56524). The experiment in a line: Inhibition of HDAC4 in human HeLa nuclear extracts by fluorometric assay.
Chain of Histone deacetylase 4 (P56524 whole entry): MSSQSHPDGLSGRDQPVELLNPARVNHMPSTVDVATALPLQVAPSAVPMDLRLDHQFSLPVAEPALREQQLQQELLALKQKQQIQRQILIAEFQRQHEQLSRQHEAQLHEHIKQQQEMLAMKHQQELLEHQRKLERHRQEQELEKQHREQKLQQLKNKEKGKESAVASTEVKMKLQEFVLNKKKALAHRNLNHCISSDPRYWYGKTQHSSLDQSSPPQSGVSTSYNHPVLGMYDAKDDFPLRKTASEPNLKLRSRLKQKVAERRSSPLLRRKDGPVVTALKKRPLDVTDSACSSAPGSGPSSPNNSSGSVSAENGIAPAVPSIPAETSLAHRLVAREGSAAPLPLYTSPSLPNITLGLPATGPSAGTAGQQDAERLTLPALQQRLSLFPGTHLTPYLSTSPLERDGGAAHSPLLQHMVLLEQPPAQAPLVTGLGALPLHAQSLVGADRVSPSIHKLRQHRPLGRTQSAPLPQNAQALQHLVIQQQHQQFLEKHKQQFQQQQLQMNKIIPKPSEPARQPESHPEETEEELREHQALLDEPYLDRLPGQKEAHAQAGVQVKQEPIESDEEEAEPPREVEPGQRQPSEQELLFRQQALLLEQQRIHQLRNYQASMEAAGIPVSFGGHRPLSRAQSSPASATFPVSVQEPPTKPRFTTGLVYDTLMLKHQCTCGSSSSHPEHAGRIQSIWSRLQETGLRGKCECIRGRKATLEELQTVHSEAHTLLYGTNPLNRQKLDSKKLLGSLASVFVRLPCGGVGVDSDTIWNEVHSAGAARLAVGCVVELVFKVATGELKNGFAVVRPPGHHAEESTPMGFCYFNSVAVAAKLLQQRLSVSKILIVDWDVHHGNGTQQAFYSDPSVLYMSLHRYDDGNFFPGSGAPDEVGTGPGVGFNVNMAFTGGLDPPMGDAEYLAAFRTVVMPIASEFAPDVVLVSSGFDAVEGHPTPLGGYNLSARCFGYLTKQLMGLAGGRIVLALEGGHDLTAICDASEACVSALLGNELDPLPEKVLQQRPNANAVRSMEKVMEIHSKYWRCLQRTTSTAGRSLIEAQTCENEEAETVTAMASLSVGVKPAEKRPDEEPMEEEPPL
The target of test [11] is T5, Protein deacetylase HDAC6 (Homo sapiens, UniProt Q9UBN7).
T5 sequence (Q9UBN7 whole entry): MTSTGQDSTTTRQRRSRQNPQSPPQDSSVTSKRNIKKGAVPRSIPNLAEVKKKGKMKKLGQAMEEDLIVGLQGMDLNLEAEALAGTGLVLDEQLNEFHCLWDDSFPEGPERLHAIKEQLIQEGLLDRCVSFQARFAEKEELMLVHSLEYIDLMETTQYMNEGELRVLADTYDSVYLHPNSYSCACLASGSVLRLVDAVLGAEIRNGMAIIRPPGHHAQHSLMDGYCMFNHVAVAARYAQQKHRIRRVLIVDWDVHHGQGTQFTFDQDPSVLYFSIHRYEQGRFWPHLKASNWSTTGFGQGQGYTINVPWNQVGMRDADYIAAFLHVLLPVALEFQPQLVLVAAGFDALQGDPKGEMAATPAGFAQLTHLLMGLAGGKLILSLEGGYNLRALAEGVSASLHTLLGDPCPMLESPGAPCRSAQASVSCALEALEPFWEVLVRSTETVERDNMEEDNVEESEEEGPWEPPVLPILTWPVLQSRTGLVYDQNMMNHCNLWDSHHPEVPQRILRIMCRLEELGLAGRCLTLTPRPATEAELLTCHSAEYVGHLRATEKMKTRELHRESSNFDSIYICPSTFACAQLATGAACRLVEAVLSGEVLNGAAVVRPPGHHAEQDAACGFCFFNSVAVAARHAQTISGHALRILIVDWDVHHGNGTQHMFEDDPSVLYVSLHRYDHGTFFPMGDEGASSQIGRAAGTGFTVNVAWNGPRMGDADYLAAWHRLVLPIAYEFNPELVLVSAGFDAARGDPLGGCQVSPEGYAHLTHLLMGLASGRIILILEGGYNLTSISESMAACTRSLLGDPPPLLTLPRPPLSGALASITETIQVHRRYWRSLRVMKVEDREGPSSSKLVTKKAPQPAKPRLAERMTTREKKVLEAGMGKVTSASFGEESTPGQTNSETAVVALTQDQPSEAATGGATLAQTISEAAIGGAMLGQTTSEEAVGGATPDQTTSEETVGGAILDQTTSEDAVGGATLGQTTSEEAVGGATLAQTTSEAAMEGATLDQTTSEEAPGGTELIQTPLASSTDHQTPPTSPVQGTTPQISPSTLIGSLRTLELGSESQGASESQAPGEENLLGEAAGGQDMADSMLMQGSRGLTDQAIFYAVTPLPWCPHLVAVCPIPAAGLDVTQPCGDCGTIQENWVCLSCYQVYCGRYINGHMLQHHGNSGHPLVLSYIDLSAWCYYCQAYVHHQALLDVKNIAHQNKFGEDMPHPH
The experiment in a line: Inhibition of HDAC6 in human HeLa nuclear extracts by fluorometric assay.

Test [12] concerns the target T6, Tyrosine-protein kinase JAK3 (Homo sapiens, UniProt P52333).
T6 sequence (P52333 whole entry): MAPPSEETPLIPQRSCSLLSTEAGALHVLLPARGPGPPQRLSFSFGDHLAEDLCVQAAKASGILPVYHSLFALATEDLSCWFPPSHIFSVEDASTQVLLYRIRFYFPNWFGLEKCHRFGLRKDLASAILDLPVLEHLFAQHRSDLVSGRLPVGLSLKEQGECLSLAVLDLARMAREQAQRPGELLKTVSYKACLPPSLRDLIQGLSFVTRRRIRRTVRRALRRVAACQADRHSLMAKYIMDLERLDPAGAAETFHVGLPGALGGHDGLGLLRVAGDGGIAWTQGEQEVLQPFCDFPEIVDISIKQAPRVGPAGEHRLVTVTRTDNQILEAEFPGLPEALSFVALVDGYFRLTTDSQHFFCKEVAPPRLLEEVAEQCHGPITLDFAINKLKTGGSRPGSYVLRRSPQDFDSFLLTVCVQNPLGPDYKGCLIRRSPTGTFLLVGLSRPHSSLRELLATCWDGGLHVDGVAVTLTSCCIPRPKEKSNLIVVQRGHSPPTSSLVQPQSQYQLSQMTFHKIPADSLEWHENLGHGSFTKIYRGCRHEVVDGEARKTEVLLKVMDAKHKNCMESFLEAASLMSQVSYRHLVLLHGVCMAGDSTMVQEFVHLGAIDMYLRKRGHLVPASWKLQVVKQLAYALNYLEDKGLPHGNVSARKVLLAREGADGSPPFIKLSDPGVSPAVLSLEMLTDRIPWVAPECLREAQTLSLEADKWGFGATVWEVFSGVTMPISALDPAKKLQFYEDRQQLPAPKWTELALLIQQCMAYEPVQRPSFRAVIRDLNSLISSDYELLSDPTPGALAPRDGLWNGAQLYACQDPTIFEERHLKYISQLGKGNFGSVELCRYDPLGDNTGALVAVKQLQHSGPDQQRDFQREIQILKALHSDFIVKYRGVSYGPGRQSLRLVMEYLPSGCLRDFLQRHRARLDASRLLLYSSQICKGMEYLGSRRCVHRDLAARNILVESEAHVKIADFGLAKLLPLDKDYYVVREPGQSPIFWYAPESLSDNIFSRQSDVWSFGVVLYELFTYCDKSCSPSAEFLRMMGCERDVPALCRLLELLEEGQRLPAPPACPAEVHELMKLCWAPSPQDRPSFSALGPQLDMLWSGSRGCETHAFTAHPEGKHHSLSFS
The experiment in a line: Inhibition of JAK3 (unknown origin) after 20 mins by radiometric analysis in presence of [gamma33P]-ATP.

Test [13] has as its target Tyrosine-protein kinase JAK1 (Homo sapiens, UniProt P23458). The experiment in a line: Inhibition of JAK1 (unknown origin) after 20 mins by radiometric analysis in presence of [gamma33P]-ATP.
Test [14] deals with Tyrosine-protein kinase JAK2 (Homo sapiens, UniProt O60674). The test can be described thus: Inhibition of JAK2 (unknown origin) after 20 mins by radiometric analysis in presence of [gamma33P]-ATP.
The target in test [15] is Non-receptor tyrosine-protein kinase TYK2 (Homo sapiens, UniProt P29597). The experiment in a line: Inhibition of TYK2 (unknown origin) after 20 mins by radiometric analysis in presence of [gamma33P]-ATP.
Chain of Non-receptor tyrosine-protein kinase TYK2 (P29597 whole entry): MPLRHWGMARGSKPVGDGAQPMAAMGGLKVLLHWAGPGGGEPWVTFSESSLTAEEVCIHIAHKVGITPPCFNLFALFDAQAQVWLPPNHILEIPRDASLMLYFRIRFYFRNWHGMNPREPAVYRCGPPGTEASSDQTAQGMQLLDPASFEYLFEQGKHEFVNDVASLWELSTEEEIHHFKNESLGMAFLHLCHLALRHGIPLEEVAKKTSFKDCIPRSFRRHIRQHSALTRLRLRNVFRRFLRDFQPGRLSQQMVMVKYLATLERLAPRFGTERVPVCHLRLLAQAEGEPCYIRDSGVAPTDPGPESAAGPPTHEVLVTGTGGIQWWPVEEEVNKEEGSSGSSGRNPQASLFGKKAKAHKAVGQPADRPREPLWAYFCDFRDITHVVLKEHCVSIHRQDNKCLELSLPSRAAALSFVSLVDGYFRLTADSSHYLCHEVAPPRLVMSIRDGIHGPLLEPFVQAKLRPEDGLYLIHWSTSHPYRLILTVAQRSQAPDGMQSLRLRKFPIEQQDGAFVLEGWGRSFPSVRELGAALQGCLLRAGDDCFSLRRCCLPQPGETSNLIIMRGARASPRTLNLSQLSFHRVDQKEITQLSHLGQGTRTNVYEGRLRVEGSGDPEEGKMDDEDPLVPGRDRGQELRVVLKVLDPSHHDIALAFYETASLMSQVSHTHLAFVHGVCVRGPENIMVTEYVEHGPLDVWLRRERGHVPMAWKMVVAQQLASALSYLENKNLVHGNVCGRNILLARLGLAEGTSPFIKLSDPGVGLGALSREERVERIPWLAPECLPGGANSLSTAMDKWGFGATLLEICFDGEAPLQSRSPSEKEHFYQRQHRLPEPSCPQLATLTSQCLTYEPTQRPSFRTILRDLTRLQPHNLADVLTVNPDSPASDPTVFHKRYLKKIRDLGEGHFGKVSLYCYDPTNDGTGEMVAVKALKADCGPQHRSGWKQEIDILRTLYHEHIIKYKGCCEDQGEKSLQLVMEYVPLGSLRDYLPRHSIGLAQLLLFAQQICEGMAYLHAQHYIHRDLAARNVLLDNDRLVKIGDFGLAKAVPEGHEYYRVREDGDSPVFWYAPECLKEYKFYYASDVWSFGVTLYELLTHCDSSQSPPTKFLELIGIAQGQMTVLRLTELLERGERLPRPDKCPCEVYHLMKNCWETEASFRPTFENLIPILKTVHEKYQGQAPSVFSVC

Some results are limits rather than exact numbers.

Chain of Histone deacetylase 5 (Q9UQL6 whole entry): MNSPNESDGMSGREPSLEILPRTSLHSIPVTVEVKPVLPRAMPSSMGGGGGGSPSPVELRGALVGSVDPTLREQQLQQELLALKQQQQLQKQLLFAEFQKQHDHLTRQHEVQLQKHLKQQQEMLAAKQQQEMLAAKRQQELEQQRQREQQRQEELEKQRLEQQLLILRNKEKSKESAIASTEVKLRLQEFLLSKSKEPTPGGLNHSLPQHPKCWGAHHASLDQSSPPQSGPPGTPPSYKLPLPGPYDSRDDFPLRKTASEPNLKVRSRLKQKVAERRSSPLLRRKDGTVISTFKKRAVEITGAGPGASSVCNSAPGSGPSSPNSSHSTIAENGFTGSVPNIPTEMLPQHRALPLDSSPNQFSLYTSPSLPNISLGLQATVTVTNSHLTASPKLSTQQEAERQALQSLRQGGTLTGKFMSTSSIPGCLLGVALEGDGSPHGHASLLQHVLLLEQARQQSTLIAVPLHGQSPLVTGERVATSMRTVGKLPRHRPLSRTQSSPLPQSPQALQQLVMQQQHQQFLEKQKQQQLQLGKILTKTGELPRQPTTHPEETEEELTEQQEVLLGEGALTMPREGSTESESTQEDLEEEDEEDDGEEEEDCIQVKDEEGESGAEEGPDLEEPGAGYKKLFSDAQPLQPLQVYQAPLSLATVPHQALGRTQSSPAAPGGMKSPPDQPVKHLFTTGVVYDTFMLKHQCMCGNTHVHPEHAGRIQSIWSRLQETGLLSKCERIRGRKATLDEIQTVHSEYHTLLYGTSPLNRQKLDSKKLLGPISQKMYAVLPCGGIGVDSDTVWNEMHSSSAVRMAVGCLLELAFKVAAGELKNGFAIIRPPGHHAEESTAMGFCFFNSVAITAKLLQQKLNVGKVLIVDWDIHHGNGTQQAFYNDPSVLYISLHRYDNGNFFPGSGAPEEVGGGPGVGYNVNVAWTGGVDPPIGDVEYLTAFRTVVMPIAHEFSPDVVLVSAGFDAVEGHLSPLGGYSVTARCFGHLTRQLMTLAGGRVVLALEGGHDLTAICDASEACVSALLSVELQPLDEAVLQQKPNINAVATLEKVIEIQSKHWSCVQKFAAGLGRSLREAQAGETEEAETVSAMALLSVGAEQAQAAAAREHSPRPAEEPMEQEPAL
Chain of Tyrosine-protein kinase JAK1 (P23458 whole entry): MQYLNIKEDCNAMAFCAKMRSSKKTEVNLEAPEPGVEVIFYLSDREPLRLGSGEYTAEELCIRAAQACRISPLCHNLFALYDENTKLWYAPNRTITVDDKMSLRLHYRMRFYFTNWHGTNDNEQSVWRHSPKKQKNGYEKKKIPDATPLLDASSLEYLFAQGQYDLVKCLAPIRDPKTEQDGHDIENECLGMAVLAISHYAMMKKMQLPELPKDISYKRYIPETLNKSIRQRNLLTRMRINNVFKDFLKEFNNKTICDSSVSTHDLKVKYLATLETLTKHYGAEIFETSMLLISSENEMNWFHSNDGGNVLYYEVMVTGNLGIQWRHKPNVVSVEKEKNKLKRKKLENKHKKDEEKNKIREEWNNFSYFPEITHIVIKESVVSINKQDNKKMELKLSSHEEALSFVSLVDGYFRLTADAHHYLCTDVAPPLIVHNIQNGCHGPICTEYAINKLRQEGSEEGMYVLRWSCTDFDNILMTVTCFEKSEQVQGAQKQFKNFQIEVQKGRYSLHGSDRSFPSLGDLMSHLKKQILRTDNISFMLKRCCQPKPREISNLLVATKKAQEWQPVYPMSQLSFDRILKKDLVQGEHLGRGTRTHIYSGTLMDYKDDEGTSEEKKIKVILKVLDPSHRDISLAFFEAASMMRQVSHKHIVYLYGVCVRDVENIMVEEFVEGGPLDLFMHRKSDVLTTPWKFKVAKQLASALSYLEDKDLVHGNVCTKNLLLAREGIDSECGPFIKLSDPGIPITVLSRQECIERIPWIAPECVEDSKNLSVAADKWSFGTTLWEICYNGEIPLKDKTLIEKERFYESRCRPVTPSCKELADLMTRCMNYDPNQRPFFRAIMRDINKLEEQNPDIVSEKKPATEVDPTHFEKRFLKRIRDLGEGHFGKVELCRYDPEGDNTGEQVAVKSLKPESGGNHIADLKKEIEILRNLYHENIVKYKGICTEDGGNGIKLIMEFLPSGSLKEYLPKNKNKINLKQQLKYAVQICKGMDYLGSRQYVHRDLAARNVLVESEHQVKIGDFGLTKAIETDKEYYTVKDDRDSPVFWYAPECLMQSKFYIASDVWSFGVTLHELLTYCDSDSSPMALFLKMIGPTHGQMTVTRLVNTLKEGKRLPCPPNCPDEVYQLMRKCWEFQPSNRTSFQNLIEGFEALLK

A word on the IC50: it is the concentration at which inhibition is half-maximal. On to `O=C(N[C@@H](CCCCNC1CC1c1ccccc1)C(=O)NCc1ccccc1)c1ccccc1` (stereo partly drawn), for which the IC50 in test [1] was more than 25 µM.
As to `Nc1ccccc1NC(=O)c1ccc(-c2cn(CCc3cccc([N+](=O)[O-])c3)nn2)s1`, the IC50 in [2] is more than 100 µM.
As to `NC1CC1c1cccc(OCC[C@H](NC(=O)c2ccccc2)C(=O)NCc2ccccc2)c1` (stereo partly drawn), the 50% inhibitory concentration (IC50) in test [3] turned out to be 230 µM; in [4], 500 µM.
For `N[C@@H]1C[C@H]1c1ccc(OCC[C@H](NC(=O)c2ccccc2)C(=O)NCc2ccccc2)cc1` the same measures were 290 µM and more than 1000 µM.
For `C[C@@H]1COCCN1c1cc(=O)n2c(n1)N(Cc1cncc(Cl)c1)[C@H](C(F)(F)F)CC2`, the IC50 in test [5], in test [6], in test [7] and in test [8] was more than 10 µM each time.
Turning to `Nc1ccccc1NC(=O)c1ccc(-c2cn(CCc3ccsc3)nn2)cc1`, the IC50 in test [9], in test [10], in test [11] and in [2] was more than 100 µM each time.
Take `c1nc(-c2cn(CC3CO3)nn2)c2cc[nH]c2n1` (stereo not drawn): the IC50 amounted to 0.035 µM in [12], 2.73 µM in [13], 2.45 µM in [14] and 5.62 µM in [15].

The values are drawn from ChEMBL document CHEMBL3621113, “Strategies for the Discovery of Target-Specific or Isoform-Selective Modulators” (J Med Chem, 2015).
